Experimental data: patent US8685658B2, “Compositions and methods for the treatment of diseases associated with aberrant cilia assembly and regulation” (Fox Chase Cancer Center, priority 2006, dated 2014)
Positions count from the first letter of the chain named. Names may count otherwise.

How the values were obtained:
Assay type in all cases: cell-based
hTERT-RPE1 cells [1] = assay: serum-induced ciliary disassembly in ciliated hTERT-RPE1 cells; conditions: compounds added 2 hours prior to induction; tubacin and niltubacin 2 μM, GSK3 inhibitor 2 μM, FTI-277 50 nM
Procedure: hTERT-RPE1 cells were grown in DMEM with 10% fetal bovine serum (FBS). For analysis of ciliary disassembly, cells were plated at 30% confluence in plates containing glass cover slips, and starved for 48 hours (in Opti-MEM or regular DMEM, without added serum) to induce cilia formation, followed by treatments described hereinbelow. For siRNA treatment, cells were initially plated in DMEM/10% FBS in plates containing cover slips, and 12 hours later siRNA transfection was performed in Opti-MEM with Oligofectamine (Invitrogen) according to manufacturer recommendations, and fixed 48 hours after transfection, following treatments indicated in Results. The remaining cells on plate were lysed, then either directly analyzed by Western blot analysis, or used for immunoprecipitation (IP)-kinase reaction to measure AurA activity.
Cells were fixed with 4% paraformaldehyde (10 min) then methanol (5 min), permeabilized with 1% Triton-X100 in PBS, blocked in 1×PBS, 3% BSA, and incubated with antibodies using standard protocols. Primary antibodies included rabbit polyclonal anti-Aurora A and anti-phospho-AuroraA/T288, (Cell Signaling), mouse mAb anti-HEF1 (14A11), polyclonal anti-γ-tubulin (Sigma), anti-α-tubulin mAb (Sigma), anti-acetylated α-tubulin mAb (clone 6-11B-1, Sigma, and clone K(Ac)40 Biomol), anti-IFT88 and anti-IFT20 (gifts of G. Pazour), mouse anti-glutamylated tubulin (Sigma), and anti-HDAC6 (Upstate). Secondary antibodies labeled with Alexa-488, Alexa-568, and Alexa-633, and TOTO-3 dye to stain DNA, were from Molecular Probes/Invitrogen. DNA was co-stained in some experiments by propidium iodine (Sigma) or Draq5 (Alexis), Confocal microscopy was performed using a Radiance 2000 laser scanning confocal microscope ((Carl Zeiss, Thornwood, N.Y.) coupled to a Nikon Eclipse E800 upright microscope (Nikon). Statistical analysis of data by one-way ANOVA was performed using GraphPad Instat 3.0 (San Diego, Calif.).

acetylated tubulin = assay: intracellular levels of acetylated tubulin (Western blot); conditions: vs DMSO vehicle
Procedure: (§1) For microinjection, recombinant glutathione-S-transferase (GST), GST fused AurA mutants T288A and D274N) produced from BL21 (DE3) bacteria were purified using the MicroSpin GST Purification Module (Amersham Biotech.). Purified recombinant AurA was purchased from Upstate; this AurA was pre-activated based on incubation with ATP. […] To prepare lysates for Western blotting and IP, mammalian cells were disrupted by M-PER lysis buffer (Pierce) supplemented with EDTA-free protease inhibitor cocktail (Roche). Lysates used for IP were incubated overnight with antibody at 4° C., subsequently incubated for 2 hours with protein A/G-sepharose (Pierce), washed, and resolved by SDS-PAGE. Western blotting was performed using standard procedures and proteins visualized using the West-Pico system (Pierce). Antibodies used included mouse monoclonal antibody (mAb) anti-HEF1 2G9 (Pugacheva and Golemis, 2005), anti-α-tubulin mAb (Sigma), anti-AurA (BD Bioscience) for Western blotting, anti-AurA rabbit polyclonal (Cell Signaling) for IP, anti-Phospho-AurA/T288 (BioLegend), anti-Phospho-AurA/T288 (Cell Signaling), anti-HDAC6 rabbit polyclonal (Upstate; 1:5000), anti-HDAC2 rabbit polyclonal (Invitrogen) and mAb anti-β-actin (AC15, Sigma), anti-IFT88 and anti-IFT20. Secondary horseradish peroxidase (HRP)-conjugated antibodies were from Amersham Biotech.

hTERT-RPE1 cells [2] = assay: loss of cilia after microinjection of AurA proteins into ciliated hTERT-RPE1 cells; conditions: for loss of cilia after microinjection: 0.05 μM protein microinjected, low serum medium
Procedure: as §1
Microinjections were performed on a Nikon TE300 Microscope (Nikon, Melville, N.Y.) that was equipped with an Eppendorf Transjector 5246 semi-automatic microinjector and micromanipulator (Eppendorf, Westbury, N.Y.). […] Proteins were pre-filtered through a 0.2-μm Milliopore membrane and mixed with Dextran Green488 (Molecular Probes) to mark injected cells. Injected cells were incubated at 37° C. before fixation. Typically, 150 cells were microinjected in each of 3 experiments.

hTERT-RPE1 cells [3] = assay: FACS cell cycle profile after serum stimulation

COC(=O)[C@H](CCSC)NC(=O)c1ccc(NC[C@@H](N)CS)cc1-c1ccccc1 [FTI]
serum-induced ciliary disassembly (hTERT-RPE1 cells [1]): do not inhibit

CC(/C=C/C(=O)NO)=C\[C@@H](C)C(=O)c1ccc(N(C)C)cc1 [trichostatin A (TSA), trichostatin A]
serum-induced ciliary disassembly (hTERT-RPE1 cells [1]): completely blocked
levels of acetylated tubulin in treated cells (acetylated tubulin): increased

O=C(CCCCCCC(=O)Nc1ccc([C@H]2O[C@@H](CSc3nc(-c4ccccc4)c(-c4ccccc4)o3)C[C@@H](c3ccc(CO)cc3)O2)cc1)NO [tubacin]
serum-induced ciliary disassembly (hTERT-RPE1 cells [1]): completely blocked
levels of acetylated tubulin in treated cells (acetylated tubulin): increased
ability of microinjected AurA to disassemble cilia (hTERT-RPE1 cells [2]; cells pre-treated for 3 hours with tubacin before aAurA microinjection): substantially limited
cell cycle profile at 2 h after serum stimulation (hTERT-RPE1 cells [3]; 2 h): neither tubacin treatment nor siRNA to HDAC6 influenced cell cycle profile
cell cycle profile at the later time point after serum stimulation (hTERT-RPE1 cells [3]; later time point (18-24 h)): accumulation in G2

O=C(O)CCCCCCC(=O)Nc1ccc([C@H]2O[C@@H](CSc3nc(-c4ccccc4)c(-c4ccccc4)o3)C[C@@H](c3ccc(CO)cc3)O2)cc1 [niltubacin]
serum-induced ciliary disassembly (hTERT-RPE1 cells [1]): no effect
levels of acetylated tubulin in treated cells (acetylated tubulin): not

B1: D274N: D274N AurA, an inactive mutant (protein, UniProt O14965 1-403, looked up, variant D274N)
Aurora kinase A: MDRSKENCISGPVKATAPVGGPKRVLVTQQFPCQNPLPVNSGQAQRVLCPSNSSQRIPLQAQKLVSSHKPVQNQKQKQLQATSVPHPVSRPLNNTQKSKQPLPSAPENNPEEELASKQKNEESKKRQWALEDFEIGRPLGKGKFGNVYLAREKQSKFILALKVLFKAQLEKAGVEHQLRREVEIQSHLRHPNILRLYGYFHDATRVYLILEYAPLGTVYRELQKLSKFDEQRTATYITELANALSYCHSKRVIHRDIKPENLLLGSAGELKIANFGWSVHAPSSRRTTLCGTLDYLPPEMIEGRMHDEKVDLWSLGVLCYEFLVGKPPFEANTYQETYKRISRVEFTFPDFVTEGARDLISRLLKHNPSQRPMLREVLEHPWITANSSKPSNCQNKESASKQS
loss of cilia after microinjection (hTERT-RPE1 cells [2]): did not induce loss of cilia

B2: T288A: T288A AurA, a hypomorphic mutant (protein, UniProt O14965 1-403, looked up, variant T288A)
Aurora kinase A: B1 Aurora kinase A with N274D, T288A
loss of cilia after microinjection (hTERT-RPE1 cells [2]): eventual partial loss of cilia
